Source: patent US10808017B2, “Ubiquitin variants and uses therof as 53BP1 inhibitors” (The Governing Council of the University of Toronto, priority 2016, dated 2020)
“Also recorded” adds a separate entry of the source.

Assays:
[1] = test system: MMEJ in U2OS EJ2-GFP cells; experiment: EJ2-GFP reporter assay for MMEJ; assay type: cell-based; settings: GFP-positive cells 48 h post-transfection, N=4
Protocol: FIG. 8 (Related to FIG. 3.) FIG. 8A, Immunoblots of whole cell lysates prepared from U2OS DR-GFP cells transfected with vectors expressing Flag-tagged i53, its DM mutant or an empty vector along with an I-SceI expression vector and probed with the indicated antibodies. FIG. 8B, U2OS DR-GFP cells were transfected with the vectors expressing Flag-tagged i53 or the DM mutant along with an I-SceI expression vector. Cells were treated either with DMSO (−) or 1 μM SCR7 (+). The percentage of GFP-positive cells was determined 48 h post-transfection for each condition and was normalized to the DM condition (mean±s.d., N=4). FIG. 8C, Control immunoblot of the experiment shown in (b). FIG. 8D, Immunoblots of whole cell lysates prepared from U2OS DR-GFP cells transfected with the indicated siRNAs along with an I-Scel expression vector and probed with the indicated antibodies. […] The percentage of GFP-positive cells was determined 48 h post-transfection for each condition and was normalized to the empty vector condition (mean±s.d., N=4). […]
The direct repeat (DR)-GFP assay to measure the frequency of HR and the strand annealing EJ2-GFP assay to measure the frequency of MMEJ were performed as previously described. […] 48 h post-plasmid transfection, the cells were trypsinized and the percentage of GFP-expressing cells was analyzed using the BD FACSCalibur flow cytometer.

TRIOBP = molecular target: T1, TRIOBP (Homo sapiens, UniProt Q9H2D6); experiment: Flag IP-MS of i53/i53-DM baits: prey TRIOBP; assay type: binding; settings: 293T Flp-In/T-Rex extracts, LC-MS/MS, one column per replicate IP
T1 construct: endogenous in cells; host or cells: HEK293 Flp-In/T-REx
Protocol: (§1) Following immunoprecipitation of Flag-tagged i53 and i-53-DM from HEK293 Flp-In/T-REx cells, peptides were identified using LC-MS/MS. Proteins were digested in solution with trypsin (Sigma, T7575-1KT) and dried to completeness. For LC-MS/MS analysis, peptides were reconstituted in 5% formic acid and loaded onto a 12-15 cm fused silica column with pulled tip packed in-house with 3.5 μm Zorbax C18 (Agilent Technologies, Calif., USA).
(§2) i53 and i53-DM precipitates were analyzed using an LTQ (Thermo Scientific) coupled to an Agilent 1100 Series HPLC (Agilent Technologies). Peptides were eluted from the column using a 90 min period cycle with a linear gradient from 0% to 40% ACN in 0.1% formic acid. Tandem MS spectra were acquired in a data-dependent mode for the top 5 (LTQ) most abundant ions using collision-induced dissociation. Acquired spectra were searched against the human Refseq_V53 database using Mascot (Matrix Science).
(§3) 293T Flp-In/T-Rex cell lines were generated that expressed Flag-tagged i53 or i53-DM under the control of a tetracycline-inducible promoter as previously described. Nine IP-MS experiments were analyzed (3 biological replicate IPs each for control i53- and i53-DM expressing cell lines). The interacting proteins were identified by MASCOT to identify high-confidence interactors for i53. […]

RPL24 = molecular target: T2, RPL24 (Homo sapiens, UniProt P83731); experiment: Flag IP-MS of i53/i53-DM baits: prey RPL24; assay type: binding; settings: 293T Flp-In/T-Rex extracts, LC-MS/MS, one column per replicate IP
T2 construct: endogenous in cells; host or cells: HEK293 Flp-In/T-REx
Protocol: as §1, §2, §3

[2] = test system: gene targeting at the LMNA locus in U2OS cells; experiment: LMNA mClover gene targeting assay (CRISPR/Cas9); assay type: cell-based
Protocol: FIG. 4. Activation of HR by i53. FIG. 4A, Schematic of the DR-GFP assay. FIG. 4B. U2OS DR-GFP cells were transfected with the vectors expressing i53, the DM mutant or an empty vector control (EV) along with an I-Scel expression vector. The percentage of GFP-positive cells was determined 48 h post-transfection for each condition and was normalized to the empty vector condition (mean±s.d., N=4). FIG. 4C, U2OS DR-GFP were first transfected with siRNAs targeting the 53BP1 or BRCA1 mRNAs along with a non-targeting siRNA (CTRL). 24 h post-transfection, cells were transfected with the I-SceI expression vector and the percentage of GFP-positive cells was determined 48 h post-siRNA transfection for each condition. The values were normalized to the empty vector condition and presented as the mean±s.e.m; N=4. FIG. 4D, Schematic of the gene targeting assay. FIG. 4E, Gene targeting efficiency at the LMNA locus in parental or 53BP1Δ U2OS cells following transfection with vectors expressing Flag-tagged i53 or its DM mutant or an empty vector control (EV). The DNA-PK inhibitor NU7441 was also added where indicated. 24 h post-transfection, cells were analysed for mClover fluorescence. Individual experiments are presented with the error bar representing the s.d., (N=3). FIG. 4F, Gene targeting at the LMNA locus in G 1-arrested parental (WT) or 53BP1Δ U2OS cells transfected with vectors expressing Flag-tagged i53 or its DM mutant or an empty vector control (EV). The DNA-PK inhibitor NU7441 was also added in the indicated conditions. 24 h post-transfection, cells were analysed for mClover fluorescence. Individual experiments are present with the error bar representing the s.d., (N=3).
The Lamin A (LMNA) assay to measure the frequency of introduction of the coding sequence for mClover at the 5′ end of LMNA using the CRISPR/Cas9 was performed as previously described4. Parental or 53BP1Δ U2OS cell lines were transfected with the indicated plasmids using Lipofectamine RNAiMAX (Invitrogen). 24 h later, the cells were electroporated with 2.5 μg of sgRNA plasmids and 2.5 μg of donor template using a Nucleofector (Lonza; protocol X-001). Parental or 53BP1Δ U2OS cells stably expressing CtIP-T847E mutant were transfected with an siRNA against KEAP1 and the indicated plasmids and processed as previously described.

T1 sequence (Q9H2D6 whole entry): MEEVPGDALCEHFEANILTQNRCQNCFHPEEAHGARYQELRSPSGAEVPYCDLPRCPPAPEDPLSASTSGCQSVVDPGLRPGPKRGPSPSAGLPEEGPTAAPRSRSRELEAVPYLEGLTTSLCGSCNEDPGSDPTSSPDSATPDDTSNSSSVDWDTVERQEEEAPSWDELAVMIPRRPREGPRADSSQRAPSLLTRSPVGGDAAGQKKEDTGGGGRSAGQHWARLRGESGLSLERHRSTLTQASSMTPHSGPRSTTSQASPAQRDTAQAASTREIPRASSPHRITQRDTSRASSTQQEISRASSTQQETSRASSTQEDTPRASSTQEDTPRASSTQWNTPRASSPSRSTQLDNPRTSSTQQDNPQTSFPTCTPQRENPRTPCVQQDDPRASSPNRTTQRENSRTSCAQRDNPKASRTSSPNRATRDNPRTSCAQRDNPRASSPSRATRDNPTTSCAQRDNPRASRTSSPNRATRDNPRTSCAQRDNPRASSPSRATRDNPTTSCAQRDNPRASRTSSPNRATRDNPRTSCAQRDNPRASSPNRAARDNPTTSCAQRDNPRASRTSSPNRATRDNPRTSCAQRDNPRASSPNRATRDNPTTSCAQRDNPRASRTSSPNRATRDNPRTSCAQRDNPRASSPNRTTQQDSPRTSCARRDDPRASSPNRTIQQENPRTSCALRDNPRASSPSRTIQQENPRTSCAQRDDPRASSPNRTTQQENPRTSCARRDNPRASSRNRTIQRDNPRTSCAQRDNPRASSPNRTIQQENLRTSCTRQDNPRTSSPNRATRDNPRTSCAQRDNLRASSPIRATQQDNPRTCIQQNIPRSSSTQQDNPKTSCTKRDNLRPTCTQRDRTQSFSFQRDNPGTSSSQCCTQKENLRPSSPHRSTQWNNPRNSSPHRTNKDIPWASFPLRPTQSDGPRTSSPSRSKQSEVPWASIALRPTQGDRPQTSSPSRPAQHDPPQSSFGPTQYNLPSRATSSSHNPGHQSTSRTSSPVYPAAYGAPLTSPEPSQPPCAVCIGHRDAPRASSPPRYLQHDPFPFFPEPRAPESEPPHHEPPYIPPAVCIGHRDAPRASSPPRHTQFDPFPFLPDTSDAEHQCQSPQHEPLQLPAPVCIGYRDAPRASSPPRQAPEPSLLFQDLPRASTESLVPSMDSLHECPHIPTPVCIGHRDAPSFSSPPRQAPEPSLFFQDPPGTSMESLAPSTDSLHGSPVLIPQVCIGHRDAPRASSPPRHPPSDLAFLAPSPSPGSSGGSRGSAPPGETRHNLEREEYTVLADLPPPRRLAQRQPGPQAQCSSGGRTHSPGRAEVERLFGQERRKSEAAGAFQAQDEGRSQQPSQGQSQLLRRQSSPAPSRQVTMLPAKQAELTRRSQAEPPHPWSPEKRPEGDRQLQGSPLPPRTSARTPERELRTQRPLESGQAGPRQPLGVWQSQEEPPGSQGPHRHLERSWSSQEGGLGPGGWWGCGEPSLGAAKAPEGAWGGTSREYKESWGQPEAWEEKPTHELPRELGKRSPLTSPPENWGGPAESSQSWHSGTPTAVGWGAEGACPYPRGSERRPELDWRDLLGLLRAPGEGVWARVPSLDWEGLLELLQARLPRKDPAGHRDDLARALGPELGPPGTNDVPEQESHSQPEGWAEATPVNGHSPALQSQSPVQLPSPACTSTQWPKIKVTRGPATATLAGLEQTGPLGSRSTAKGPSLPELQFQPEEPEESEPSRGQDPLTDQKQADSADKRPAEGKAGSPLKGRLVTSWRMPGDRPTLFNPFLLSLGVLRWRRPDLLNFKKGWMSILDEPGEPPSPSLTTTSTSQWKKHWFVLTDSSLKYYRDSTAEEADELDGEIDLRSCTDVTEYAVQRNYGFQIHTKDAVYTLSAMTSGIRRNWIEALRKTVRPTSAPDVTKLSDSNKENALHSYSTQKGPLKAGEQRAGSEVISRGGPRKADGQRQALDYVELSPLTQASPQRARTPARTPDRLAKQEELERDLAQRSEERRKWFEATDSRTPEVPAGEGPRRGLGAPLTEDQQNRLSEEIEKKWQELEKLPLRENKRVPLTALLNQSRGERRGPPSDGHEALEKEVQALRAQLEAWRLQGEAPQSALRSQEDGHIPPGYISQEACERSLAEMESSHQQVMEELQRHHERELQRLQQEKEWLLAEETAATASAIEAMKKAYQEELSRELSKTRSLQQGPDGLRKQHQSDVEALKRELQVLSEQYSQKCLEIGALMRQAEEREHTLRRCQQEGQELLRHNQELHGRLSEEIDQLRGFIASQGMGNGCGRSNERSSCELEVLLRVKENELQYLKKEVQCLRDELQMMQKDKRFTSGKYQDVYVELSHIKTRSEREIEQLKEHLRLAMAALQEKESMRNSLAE

Substance	Increase in MMEJ over the empty vector [1]	Total peptides, TRIOBP (TRIOBP)	Total peptides, RPL24 (RPL24)	Gene targeting at the LMNA locus in 53BP1Δ cells ([2]; 53BP1Δ U2OS cells)	Cas9-stimulated gene targeting at the LMNA locus in G1 ([2]; G1-arrested U2OS cells expressing CtIP-T847E, KEAP1 siRNA, compared with 53BP1 knockout)	Gene targeting at the LMNA locus, i53 combined with DNA-PK inhibition ([2]; i53 plus NU7441 (10 μM))	Change of gene targeting at the LMNA locus (in words) ([2]; parental U2OS cells, NU7441 at 10 μM)	Gene targeting efficiency at the LMNA locus (mClover-positive cells) ([2]; parental U2OS cells, empty vector control 4.79% +/−0.5%) [%]
i53-DM: 53BP1-binding deficient mutant of i53 (P69L, L70V)	1.3+/−0.1 fold	3	5	–	–	–	–	–
i53: UbvG08 with C-terminal di-glycine removed and I44A mutation; genetically encoded inhibitor of 53BP1	1.4+/−0.15 fold	–	5	did not result in a further increase in gene targeting	nearly as efficient as the 53BP1 knockout	additive increase in gene targeting	nearly two-fold; also recorded: approached that of 53BP1-null cells	8.58
